# Molecular target: T1, human glucocorticoid receptor (GR) complex (Homo sapiens, UniProt P04150)
# T1 construct: made in house; host or cells: insect expression system (baculovirus lysate)
# T1 sequence (P04150 1-777): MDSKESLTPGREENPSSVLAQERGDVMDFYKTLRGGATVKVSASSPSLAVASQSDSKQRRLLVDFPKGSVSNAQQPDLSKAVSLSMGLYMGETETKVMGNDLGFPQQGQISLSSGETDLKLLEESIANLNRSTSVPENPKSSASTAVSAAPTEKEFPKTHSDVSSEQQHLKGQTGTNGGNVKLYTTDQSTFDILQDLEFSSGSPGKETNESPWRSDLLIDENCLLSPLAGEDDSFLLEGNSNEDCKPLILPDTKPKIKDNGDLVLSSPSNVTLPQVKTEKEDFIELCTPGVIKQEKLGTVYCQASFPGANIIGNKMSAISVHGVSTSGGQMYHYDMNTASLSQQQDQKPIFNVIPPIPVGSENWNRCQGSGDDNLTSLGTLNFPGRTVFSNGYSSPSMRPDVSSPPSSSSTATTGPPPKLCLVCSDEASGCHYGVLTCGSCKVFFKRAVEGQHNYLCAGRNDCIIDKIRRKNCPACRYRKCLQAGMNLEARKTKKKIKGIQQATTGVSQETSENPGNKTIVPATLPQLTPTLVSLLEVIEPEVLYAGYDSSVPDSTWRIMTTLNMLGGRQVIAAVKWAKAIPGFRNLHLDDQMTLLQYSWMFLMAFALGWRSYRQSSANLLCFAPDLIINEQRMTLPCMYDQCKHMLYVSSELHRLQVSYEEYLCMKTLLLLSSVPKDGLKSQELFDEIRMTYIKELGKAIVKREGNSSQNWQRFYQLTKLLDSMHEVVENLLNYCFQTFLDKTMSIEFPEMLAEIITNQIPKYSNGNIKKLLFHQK
# Test: Glucocorticoid receptor competitive binding assay (fluorescence polarization)
# Conditions: competition with TAMRA-labeled dexamethasone
# Method: Compounds of the invention were evaluated for binding to the steroid receptor by a fluorescence polarization competitive binding assay.
# A. Glucocorticoid Receptor Competitive Binding Assay
# Step 1. Characterization of the Fluorescent Probe
# The wavelengths for maximum excitation and emission of the fluorescent probe should first be measured. An example of such a probe is rhodamine (TAMRA)-labeled dexamethasone.
# The affinity of the probe for the steroid receptor was then determined in a titration experiment. The fluorescence polarization value of the probe in assay buffer was measured on an SLM-8100 fluorometer using the excitation and emission maximum values described above. Aliquots of expression vector lysate were added and fluorescence polarization was measured after each addition until no further change in polarization value was observed. Non-linear least squares regression analysis was used to calculate the dissociation constant of the probe from the polarization values obtained for lysate binding to the probe.
# Step 2. Screening for Inhibitors of Probe Binding
# This assay uses fluorescence polarization (FP) to quantitate the ability of test compounds to compete with tetramethyl rhodamine (TAMRA)-labeled dexamethasone for binding to a human glucocorticoid receptor (GR) complex prepared from an insect expression system. The assay buffer was: 10 mM TES, 50 mM KCl, 20 mM Na2MoO4.2H20, 1.5 mM EDTA, 0.04% w/v CHAPS, 10% v/v glycerol, 1 mM dithiothreitol, pH 7.4. Test compounds were dissolved to 1 mM in neat DMSO and then further diluted to 10× assay concentration in assay buffer supplemented with 10% v/v DMSO. Test compounds were serially diluted at 10× assay concentrations in 10% DMSO-containing buffer in 96-well polypropylene plates. Binding reaction mixtures were prepared in 96-well black Dynex microtiter plates by sequential addition of the following assay components to each well: 15 μL of 10× test compound solution, 85 μL of GR-containing baculovirus lysate diluted 1:170 in assay buffer, and 50 μL of 15 nM TAMRA-labeled dexamethasone. Positive controls were reaction mixtures containing no test compound; negative controls (blanks) were reaction mixtures containing 0.7 μM to 2 μM dexamethasone. […] IC50 values were determined by iterative non-linear curve fitting of the FP signal data to a 4-parameter logistic equation.
row,activity in the GR binding assay,Structure (SMILES)
1,potent activity,"Cc1ccc(F)cc1C(C)(C)CC(O)(Cn1cc(C)c(=O)c(C)c1)C(F)(F)F (stereo not drawn) [1-[4-(5-Fluoro-2-methylphenyl)-2-hydroxy-4-methyl-2-trifluoromethylpentyl]-3,5-dimethyl-1H-pyridin-4-one]"
2,potent activity,COc1ccc(-c2ccoc2)cc1C(C)(C)CC(O)(Cn1ccc(=O)c2ccccc21)C(F)(F)F (stereo not drawn) [1-[4-(5-Furan-3-yl-2-methoxyphenyl)-2-hydroxy-4-methyl-2-trifluoromethylpentyl]-1H-quinolin-4-one]
3,potent activity,COc1ccc(F)cc1C(C)(C)CC(O)(Cn1ccc(=O)c2cc(F)ccc21)C(F)(F)F (stereo not drawn) [6-Fluoro-1-[4-(5-fluoro-2-methoxyphenyl)-2-hydroxy-4-methyl-2-trifluoromethylpentyl]-1H-quinolin-4-one]
4,potent activity,"COc1ccc(C=O)cc1C(C)(C)CC(O)(Cn1ccc(=O)c2ccccc21)C(F)(F)F (stereo not drawn) [4-Methoxy-3-[4,4,4-trifluoro-3-hydroxy-1,1-dimethyl-3-(4-oxo-4H-quinolin-1-ylmethyl)butyl]benzaldehyde]"
5,potent activity,"COc1ccc(F)cc1C(C)(C)CC(O)(CN1CCc2ccccc21)C(F)(F)F (stereo not drawn) [2-(2,3-Dihydroindol-1-ylmethyl)-1,1,1-trifluoro-4-(5-fluoro-2-methoxyphenyl)-4-methylpentan-2-ol]"
6,potent activity,COc1ccc(F)cc1C(C)(C)CC(O)(Cn1cc(CO)c(=O)c2ccccc21)C(F)(F)F (stereo not drawn) [1-[4-(5-Fluoro-2-methoxyphenyl)-2-hydroxy-4-methyl-2-trifluoromethylpentyl]-3-hydroxymethyl-1H-quinolin-4-one]
7,potent activity,"Cc1ccc(F)cc1C(C)(C)CC(O)(Cn1ccc(=O)c2ncccc21)C(F)(F)F (stereo not drawn) [1-[4-(5-Fluoro-2-methylphenyl)-2-hydroxy-4-methyl-2-trifluoromethylpentyl]-1H-[1,5]naphthyridin-4-one]"
8,potent activity,COc1ccc(F)cc1C(C)(C)CC(O)(Cn1ccc(=O)c2ccccc21)C(F)(F)F (stereo not drawn) [1-[4-(5-Fluoro-2-methoxyphenyl)-2-hydroxy-4-methyl-2-trifluoromethylpentyl]-1H-quinolin-4-one]
9,potent activity,"COc1ccc(F)cc1C(C)(C)CC(O)(CN1CCN(c2ncc(C(F)(F)F)cc2Cl)CC1)C(F)(F)F (stereo not drawn) [2-[4-(3-Chloro-5-trifluoromethylpyridin-2-yl)piperazin-1-ylmethyl]-1,1,1-trifluoro-4-(5-fluoro-2-methoxyphenyl)-4-methylpentan-2-ol]"

# Further lines, the compound ahead of its results:
row,Structure (SMILES),activity in the GR binding assay
1,"Cc1cn(CC(O)(CC(C)(C)c2cc(S(C)(=O)=O)cc3c2OCC3)C(F)(F)F)c2ccccc2c1=O (stereo not drawn) [1-[2-Hydroxy-4-(5-methanesulfonyl-2,3-dihydrobenzofuran-7-yl)-4-methyl-2-trifluoromethylpentyl]-3-methyl-1H-quinolin-4-one]",potent activity
2,COc1ccc(C(C)(C)CC(O)(Cn2ccc(=O)c3ccccc32)C(F)(F)F)cc1F (stereo not drawn) [1-[4-(3-Fluoro-4-methoxyphenyl)-2-hydroxy-4-methyl-2-trifluoromethylpentyl]-1H-quinolin-4-one],potent activity
3,CC(C)(CC(O)(Cn1ccc(=O)c2ccccc21)C(F)(F)F)c1cc(-c2cncnc2)ccc1O (stereo not drawn),potent activity
4,COc1cc(F)ccc1C(C)(C)CC(O)(Cn1ccc(=O)c2ccccc21)C(F)(F)F (stereo not drawn),potent activity
5,COc1ccc(-c2ccsc2)cc1C(C)(C)CC(O)(Cn1ccc(=O)c2ccccc21)C(F)(F)F (stereo not drawn),potent activity
6,CC(C)(CC(O)(Cn1ccc(=O)c2ccccc21)C(F)(F)F)c1cc(F)ccc1OCc1ccccc1 (stereo not drawn),potent activity
7,CC(C)(CC(O)(Cn1ccc(=O)c2ccccc21)C(F)(F)F)c1cccc(-c2ccccc2)c1 (stereo not drawn) [1-(4-Biphenyl-3-yl-2-hydroxy-4-methyl-2-trifluoromethylpentyl)-H-quinolin-4-one],potent activity
8,"C[S+]([O-])c1cc2c(c(C(C)(C)CC(O)(Cn3ccc(=O)c4ccccc43)C(F)(F)F)c1)OCC2 (stereo not drawn) [1-[2-Hydroxy-4-(5-methanesulfinyl-2,3-dihydrobenzofuran-7-yl)-4-methyl-2-trifluoromethylpentyl]-1H-quinolin-4-one]",potent activity
9,Cc1ccc(C(C)(C)CC(O)(Cn2ccc(=O)c3ccccc32)C(F)(F)F)cc1F (stereo not drawn) [1-[4-(3-Fluoro-4-methylphenyl)-2-hydroxy-4-methyl-2-trifluoromethylpentyl]-1H-quinolin-4-one],potent activity
10,"CC(C)(CC(O)(Cn1ccc(=O)c2ncccc21)C(F)(F)F)c1cc(S(C)(=O)=O)cc2c1OCC2 (stereo not drawn) [1-[2-Hydroxy-4-(5-methanesulfonyl-2,3-dihydrobenzofuran-7-yl)-4-methyl-2-trifluoromethylpentyl]-1H-[1,5]naphthyridin-4-one]",potent activity
11,CC(C)(CC(O)(Cn1ccc(=O)c2ccccc21)C(F)(F)F)c1cccc(C(=O)C2CC2)c1 (stereo not drawn),potent activity
12,"Cc1cc(C)c(O)c(C(C)(C)CC(O)(Cn2ccc(=O)c3ccccc32)C(F)(F)F)c1 (stereo not drawn) [1-[2-Hydroxy-4-(2-hydroxy-3,5-dimethylphenyl)-4-methyl-2-trifluoromethylpentyl]-1H-quinolin-4-one]",potent activity
13,Cc1cc(C)cc(C(C)(C)CC(O)(Cn2ccc(=O)c3ccccc32)C(F)(F)F)c1 (stereo not drawn),potent activity
14,CC(=O)c1cccc(C(C)(C)CC(O)(Cn2ccc(=O)c3ccccc32)C(F)(F)F)c1 (stereo not drawn) [1-[4-(3-Acetylphenyl)-2-hydroxy-4-methyl-2-trifluoromethylpentyl]-1H-quinolin-4-one],potent activity
15,"CC(C)(CC(O)(Cn1ccc(=O)c2ccccc21)C(F)(F)F)c1cc(Cl)cc2c1OCC2 (stereo not drawn) [1-[4-(5-Chloro-2,3-dihydrobenzofuran-7-yl)-2-hydroxy-4-methyl-2-trifluoromethylpentyl]-1H-quinolin-4-one]",potent activity
16,CC(C)(CC(O)(Cn1ccc(=O)c2ccccc21)C(F)(F)F)c1cc(-c2ccsc2)ccc1O (stereo not drawn) [1-[2-Hydroxy-4-(2-hydroxy-5-thiophen-3-ylphenyl)-4-methyl-2-trifluoromethylpentyl]-1H-quinolin-4-one],potent activity
17,"Cc1cn(CC(O)(CC(C)(C)c2cc(F)ccc2O)C(F)(F)F)cc(C)c1=O (stereo not drawn) [1-[4-(5-Fluoro-2-hydroxyphenyl)-2-hydroxy-4-methyl-2-trifluoromethylpentyl]-3,5-dimethyl-1H-pyridin-4-one]",potent activity
18,CC(C)(CC(O)(Cn1ccc(=O)c2ccccc21)C(F)(F)F)c1cccc2c1OCO2 (stereo not drawn),potent activity
19,COc1ccc(F)cc1C(C)(C)CC(O)(Cn1ccc(=O)c2ccccc21)C1CC1 (stereo not drawn),potent activity
20,CC(=O)c1ccc(O)c(C(C)(C)CC(O)(Cn2ccc(=O)c3ccccc32)C(F)(F)F)c1 (stereo not drawn),potent activity
21,"Cc1cn(CC(O)(CC(C)(C)c2cc(F)ccc2O)C(F)(F)F)c(CO)c(C)c1=O (stereo not drawn) [1-[4-(5-Fluoro-2-hydroxyphenyl)-2-hydroxy-4-methyl-2-trifluoromethylpentyl]-2-hydroxymethyl-3,5-dimethyl-1H-pyridin-4-one]",potent activity

# From patent US7579469B2, “Glucocorticoid mimetics, methods of making them, pharmaceutical compositions, and uses thereof” (Boehringer Ingelheim Pharmaceuticals, Inc., priority 2003, dated 2009)
